Entries after “also recorded” stand apart in the source; their conditions may differ. Like-named read-outs stand apart in the source and are kept apart here.
How the values were obtained:
[1] = system: E16-17 mouse hippocampal neurons; experiment: Hippocampal neuron survival (morphology plus MTT conversion); format: cell-based; conditions: 48 h; counts normalized to 25 ng/ml BDNF or baseline; up to 5 nM
Procedure: (§1) Hippocampal neurons were prepared from E16-17 mouse embryos as previously described (Yang. T. et al. (2003) J Neurosci 23, 3353-3363). […] For studies employing p75^NTR+/+ and p75^NTR−/− neurons, mice carrying a mutation in exon 3 of the p75^NTR gene (Lee, K. F. et al. (1992) Cell 69, 737-749) were bred onto a B6 congenic background (>10 B6 backcrosses).
(§2) After 48 hours in culture, cell survival was assessed as previously described (Longo, F. M., Manthorpe. M., Xie. Y. M., Varon, S. (1997) J Neurosci Res 48, 1-17) using a combination of standard morphological criteria along with visual determination of whether a given cell converted MTT to its blue formazan product. The number of surviving neurons was determined by counting the total number of cells in each well that were both morphologically intact and filed with blue product (Longo F. M., Manthorpe. M., Xie, Y. M., Varon, S. (1997) J Neurosci Res 48, 1-17). For each neurotrophin or compound concentration, duplicate wells were counted and the resulting values averaged. Activity of each compound was confirmed by blinded counts. Counts were normalized to survival achieved with 25 ng/ml BDNF or to baseline survival. Fitting of dose-responsive curves was performed with Sigmaplot obtained from SYSTAT Software Inc. (Richmond, Calif., United States of America).

mature oligodendrocytes = experiment: Oligodendrocyte cell death assay (MBP/TUNEL) with or without proNGF; format: cell-based, rat
Procedure: Cortical oligondendrocytes from rat pups were prepared as previously described (Yoon et al. (1998) J Neurosci 18, 3273-3281, Harrington, A. W., Kim, J. Y., Yoon, S. O. (2002) J Neurosci 22, 156-166). Cells were treated with recombinant, cleavage-resistant proNGF at 0.05 nM (2.8 ng/ml). Controls were treated with equivalent volumes of proNGF purification buffer containing 350 mM imidazole. 24 hours after treatment, the cells were fixed and processed for MBP and TUNEL staining as previously described (Beattie, M. S. et al. (2002) Neuron 36, 375-386). 200-250 cells were counted per well, for a minimum of 600 cells per experimental condition.

hippocampal neurons [2] = experiment: Hippocampal neuron survival with p75NTR antisera (antibody inhibition); format: cell-based, mouse; conditions: antiserum 1:100, 48 h
Procedure: as §1, §2
(§3) For all studies applying signaling inhibitors, p75^NTR antibodies or p75^NTR−/− neurons, survival was assessed at 48 hours.

TrkA-Fc = experiment: NGF/TrkA-Fc binding by NGF ELISA; conditions: up to 10,000 nM compound
Procedure: (§4) Briefly, 96-well plates were incubated with 0.1 pmol (at 1 nM) of p75/Fc or TrkA/Fc recombinant protein obtained from R&D System (Minneapolis, Minn., United States of America) overnight at 4° C. followed by incubation with blocking buffer for 1 hour at room temperature. […] Plates were then washed five times with Tris-buffered saline (TBS) containing 0.05% Tween-20 and incubated with anti-NGF rabbit polyclonal antibody overnight at 4° C. Following five washes with TBS, wells were incubated for 2.5 hours at room temperature with anti-rabbit IgG HRP conjugate and washed five times. 3,3′,5,5′-tetramethyl-benzidine substrate was added and the optical density measured at 450 nm.

E17 hippocampal neurons = experiment: Aβ-induced death of hippocampal neurons; format: cell-based; conditions: Aβ1-42 10 μM; NGF at 100 pg/ml
Procedure: Using previously well established protocols, Aβ was preincubated for 3 days in water to allow formation of oligomers. E17 hippocampal neurons were incubated for 5 days to allow for maturation prior to addition of Aβ with test compounds.

NFκB-p65 = NFκB-p65 phosphorylation western blot in hippocampal cultures; format: cell-based, mouse; conditions: compounds 20 nM, BDNF/NGF 50 ng/ml; 10 and 30 min
Procedure: (§5) For assays of Trk, AKT, NFκB, and ERK activation, hippocampal neurons derived from E16-17 mice were cultured in poly-L-lysine coated six-well plates (Corning, Inc., Corning, N.Y., United States of America) in DMEM containing 10% FBS, followed by incubation in serum-free DMEM for 2 hours before addition of neurotrophins or compounds. At the indicated time points, neurons were harvested in lysis buffer consisting of: 20 mM Tris, pH 8.0, 137 mM NaCl, 1% Igepal CA-630, 10% glycerol, 1 mM PMSF, 10 μg/ml aprotinin, 1 μg/ml leupeptin, 500 μM orthovanadate (Zhou, J., Valletta, J. S., Grimes, M. L., Mobley, W. C. (1995) J Neurochem 65, 1146-1156).
(§6) Lysates were centrifuged, the supernatant collected, and protein concentrations determined using the BCA Protein Assay Reagent obtained from Pierce (Rockford, Ill., United States of America). Western blots were performed as described previously (Yang, T. et al. (2003) J Neurosci 23, 3353-3363). Western blot signals were detected using the ECL Chemiluminescence System obtained by Amersham (Piscataway, N.J., United States of America) (Yang, T. et al. (2003) J Neurosci 23, 3353-3363).

[3] = molecular target: T1, p75^NTR-expressing 3T3 cells (Homo sapiens, UniProt P08138); experiment: p75NTR antibody (Ab 9651) competition on 3T3 cells, western blot; format: binding; conditions: 100 nM compound, 90 min, 4° C.
T1 construct: host or cells: NIH3T3 fibroblasts
T1 sequence (P08138 29-427): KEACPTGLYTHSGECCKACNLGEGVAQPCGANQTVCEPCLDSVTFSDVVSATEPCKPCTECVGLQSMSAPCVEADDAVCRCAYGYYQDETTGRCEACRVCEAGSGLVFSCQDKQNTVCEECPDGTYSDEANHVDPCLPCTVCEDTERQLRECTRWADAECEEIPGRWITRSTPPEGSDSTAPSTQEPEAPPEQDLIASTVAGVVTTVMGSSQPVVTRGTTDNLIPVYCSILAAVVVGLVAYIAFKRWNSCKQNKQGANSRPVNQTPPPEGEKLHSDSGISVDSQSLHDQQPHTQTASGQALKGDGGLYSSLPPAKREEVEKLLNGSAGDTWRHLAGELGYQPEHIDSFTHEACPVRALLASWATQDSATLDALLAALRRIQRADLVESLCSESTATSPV
Procedure: NIH3T3 fibroblasts expressing either null vector or p75^NTR (Huang, C. S. et al. (1999) J Biol Chem 274, 36707-36714) were obtained from Dr. William Mobley (Stanford University, Calif., United States of America). Cells were grown in monolayers, harvested in PBS with 2 mM EDTA, pelleted, and resuspended in ice-cold DMEM HEPES with 1 mg/ml BSA. 6-9×10^6 cells from one confluent 6-well plate were used for each experimental point.
For binding analysis, p75^NTR antibody (1:100) was allowed to bind in the presence or absence of 100 nM p75-binding compounds for 90 minutes at 4° C. with gentle rotation, followed by four washes in PBS. The final cell pellet was resuspended in lysis buffer.
Western blots were performed as described above. To detect the presence of p75^NTR antibody, blots were probed with horseradish peroxidase-linked goat anti-rabbit IgG obtained from Amersham/Pharmacia Biotech (Piscataway, N.J., United States of America). Signals were detected by the ECL chemiluminescence system obtained from Amersham Biosciences (Piscataway, […]., United States of America). To control for variation in protein loading, the blot was stripped and reprobed with β-actin monoclonal antibody obtained from Sigma (St. Louis, Mo., United States of America).

p75^NTR-Fc [4] = molecular target: T2, p75^NTR-Fc (Homo sapiens, UniProt P08138); conditions: read-out: KD for NGF, previous reports; Nykjaer et al. 2004; cited from earlier work
T2 construct: purchased R&D Systems

hippocampal neurons [5] = experiment: Hippocampal neuron survival with signaling pathway inhibitors; format: cell-based, mouse; conditions: PD98059 50 μM; BDNF/NGF 25 ng/ml, compounds 5 nM; 48 h
Procedure: as §1, §2, §3

ERK42 = ERK42 activation western blot in hippocampal cultures; format: cell-based, mouse; conditions: compounds 20 nM, BDNF/NGF 50 ng/ml; 10 and 30 min
Procedure: as §5, §6

TrkB = molecular target: T3, TrkB (Mus musculus, UniProt P15209); experiment: Trk Y490 phosphorylation western blot in hippocampal neuron cultures; format: cell-based; conditions: 10 or 30 minutes
T3 construct: endogenous in cells; host or cells: primary hippocampal neurons from E16-17 mouse embryos
Procedure: as §5, §6

p75^NTR-Fc [6] = molecular target: T2, p75^NTR-Fc; experiment: NGF/p75NTR-Fc binding by NGF ELISA, Gaddum/Schild fit; conditions: read-out: KD for NGF; in the absence of compounds
Procedure: as §4
A regression analysis of NGF-p75^NTR binding in the presence of the p75-binding compounds was performed. The data was fit using the Nonlinear Regression module of Sigmaplot, to a modification of the Gaddum/Schild equation (adapted from Motulsky, H. J., and Christopoulos. A. (2003) A Practical Guide to Curve Fitting, 2nd edn. (San Diego, Calif., GraphPad Software, Inc.): […]

AKT = AKT activation western blot in hippocampal cultures; format: cell-based, mouse; conditions: p75NTR−/− neurons, versus culture medium alone
Procedure: as §5, §6

p75^NTR−/− cells = experiment: Survival of p75NTR+/+ versus p75NTR-/- hippocampal neurons; format: cell-based, mouse; conditions: neurotrophins 1.8 nM, compounds 5 nM
Procedure: as §1, §2, §3

T2 sequence (P08138 with tags, fused parts or gaps limits assumed): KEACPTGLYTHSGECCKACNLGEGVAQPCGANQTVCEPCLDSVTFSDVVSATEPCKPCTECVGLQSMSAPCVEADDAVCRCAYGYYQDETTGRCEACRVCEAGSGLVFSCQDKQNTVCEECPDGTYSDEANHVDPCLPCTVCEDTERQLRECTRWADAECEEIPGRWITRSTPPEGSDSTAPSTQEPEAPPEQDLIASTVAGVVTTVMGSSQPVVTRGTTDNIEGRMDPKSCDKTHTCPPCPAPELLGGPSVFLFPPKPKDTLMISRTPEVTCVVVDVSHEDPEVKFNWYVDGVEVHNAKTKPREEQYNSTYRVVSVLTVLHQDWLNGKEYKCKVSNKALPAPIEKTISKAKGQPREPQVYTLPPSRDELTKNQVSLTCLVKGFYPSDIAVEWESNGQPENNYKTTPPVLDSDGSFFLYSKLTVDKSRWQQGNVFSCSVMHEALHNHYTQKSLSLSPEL
T3 sequence (P15209 32-821): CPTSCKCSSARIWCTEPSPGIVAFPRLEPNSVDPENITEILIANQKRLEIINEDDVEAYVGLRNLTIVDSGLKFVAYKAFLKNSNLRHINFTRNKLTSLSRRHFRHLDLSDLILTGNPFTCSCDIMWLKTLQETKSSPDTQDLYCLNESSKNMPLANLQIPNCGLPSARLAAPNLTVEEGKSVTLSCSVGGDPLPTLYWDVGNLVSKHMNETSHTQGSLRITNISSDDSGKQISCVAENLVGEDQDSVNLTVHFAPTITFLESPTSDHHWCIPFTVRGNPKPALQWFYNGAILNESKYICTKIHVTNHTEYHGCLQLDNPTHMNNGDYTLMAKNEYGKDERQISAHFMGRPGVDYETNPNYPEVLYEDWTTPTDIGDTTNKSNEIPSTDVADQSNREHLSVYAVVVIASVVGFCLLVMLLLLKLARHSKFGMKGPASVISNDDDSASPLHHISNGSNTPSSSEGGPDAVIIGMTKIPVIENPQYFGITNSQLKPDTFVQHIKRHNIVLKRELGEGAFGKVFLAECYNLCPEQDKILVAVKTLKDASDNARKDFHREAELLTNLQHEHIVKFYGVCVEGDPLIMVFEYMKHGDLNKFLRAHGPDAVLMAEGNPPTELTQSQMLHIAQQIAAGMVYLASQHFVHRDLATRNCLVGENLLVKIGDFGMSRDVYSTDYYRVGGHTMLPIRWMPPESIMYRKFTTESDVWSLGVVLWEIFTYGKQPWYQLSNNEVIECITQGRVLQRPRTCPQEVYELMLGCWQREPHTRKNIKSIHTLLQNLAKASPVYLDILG

| Compound | neurotrophic activity (neuron survival response) [1] | oligodendrocyte survival with proNGF at 10 nM compound (mature oligodendrocytes; 10 nM compound, proNGF present) | promotion of oligodendrocyte cell death by compound alone (mature oligodendrocytes; absence of proNGF, 24 h) | survival versus CM in the presence of Ab 9651 (hippocampal neurons [2]) | effect on NGF binding to TrkA-Fc (TrkA-Fc) | protection against Aβ1-42-induced death (E17 hippocampal neurons) | NFκB-p65 activation (NFκB-p65) | displacement of anti-p75NTR Ab 9651 [3] | Kd (p75^NTR-Fc [4]) [nM] | effect of PD98059 (ERK inhibitor) on survival promoted by the substance (hippocampal neurons [5]) | ERK42 activation (ERK42) | TrkB activation (Trk Y490 phosphorylation) (TrkB) | Kd (p75^NTR-Fc [6]) [nM] | AKT activation in p75NTR−/− cells (AKT) | effect of p75NTR-deficiency on promotion of neuron survival by the substance (p75^NTR−/− cells) |
| --- | --- | --- | --- | --- | --- | --- | --- | --- | --- | --- | --- | --- | --- | --- | --- |
| CCN(CC)CCCNC(=O)Cn1cnc2c1c(=O)n(C)c(=O)n2C [Compound 5] | little or no neurotrophic activity; also recorded: no response | appeared to decrease survival | did not promote cell death | not significant | no significant effect up to 10,000 nM | failed to block | did not induce | no effect | – | – | – | – | – | – | – |
| NGF: Recombinant human NGF obtained from Invitrogen | – | – | – | – | – | fails to protect; also recorded: did not protect | – | – | ~1 | small but significant effect; also recorded: small effects | greater with BDNF and NGF treatment than with the p75-binding compounds | no activation was detected | 0.8 to 0.9 | completely absent | lack of response; also recorded: completely inhibits |

From US7723328B2, “Methods of facilitating cell survival using neurotrophin mimetics” (The University of North Carolina at Chapel Hill, priority 2005, dated 2010)
